Assays:
Settings in all cases: Compound concentration 1.0 uM
[1] = target: Death-associated protein kinase 3 (Homo sapiens) (UniProt O43293)
[2] = target: T1, Serine/threonine-protein kinase DCLK2 (Homo sapiens) (UniProt Q8N568)
T1 sequence (whole entry): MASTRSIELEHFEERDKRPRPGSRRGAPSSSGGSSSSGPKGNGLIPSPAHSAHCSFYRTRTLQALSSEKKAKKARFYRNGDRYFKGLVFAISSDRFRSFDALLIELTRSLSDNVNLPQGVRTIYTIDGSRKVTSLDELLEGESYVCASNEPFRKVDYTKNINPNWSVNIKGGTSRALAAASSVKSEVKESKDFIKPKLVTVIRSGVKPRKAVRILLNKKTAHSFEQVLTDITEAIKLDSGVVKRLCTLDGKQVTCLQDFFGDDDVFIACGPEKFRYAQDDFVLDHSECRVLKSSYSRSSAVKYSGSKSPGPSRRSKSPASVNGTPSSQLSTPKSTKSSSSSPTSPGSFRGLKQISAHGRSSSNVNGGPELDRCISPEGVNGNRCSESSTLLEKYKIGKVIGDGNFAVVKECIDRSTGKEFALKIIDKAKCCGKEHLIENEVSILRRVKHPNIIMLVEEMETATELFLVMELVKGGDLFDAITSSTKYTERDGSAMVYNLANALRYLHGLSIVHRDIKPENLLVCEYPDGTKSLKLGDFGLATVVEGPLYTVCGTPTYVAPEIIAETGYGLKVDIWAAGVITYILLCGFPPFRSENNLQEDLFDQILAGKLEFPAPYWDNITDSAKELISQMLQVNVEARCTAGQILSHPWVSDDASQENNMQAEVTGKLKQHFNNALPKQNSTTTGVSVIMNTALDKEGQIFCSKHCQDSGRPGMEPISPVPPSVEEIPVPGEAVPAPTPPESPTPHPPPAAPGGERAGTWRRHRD

[3] = target: Calcium/calmodulin-dependent protein kinase type 1B (Homo sapiens) (UniProt Q6P2M8)
[4] = target: LIM domain kinase 2 (Homo sapiens) (UniProt P53671)
[5] = target: Vascular endothelial growth factor receptor 2 (Homo sapiens) (UniProt P35968)
[6] = target: Myosin light chain kinase 2, skeletal/cardiac muscle (Homo sapiens) (UniProt Q9H1R3)
[7] = target: T2, Rhodopsin kinase GRK7 (Homo sapiens) (UniProt Q8WTQ7)
T2 sequence (whole entry): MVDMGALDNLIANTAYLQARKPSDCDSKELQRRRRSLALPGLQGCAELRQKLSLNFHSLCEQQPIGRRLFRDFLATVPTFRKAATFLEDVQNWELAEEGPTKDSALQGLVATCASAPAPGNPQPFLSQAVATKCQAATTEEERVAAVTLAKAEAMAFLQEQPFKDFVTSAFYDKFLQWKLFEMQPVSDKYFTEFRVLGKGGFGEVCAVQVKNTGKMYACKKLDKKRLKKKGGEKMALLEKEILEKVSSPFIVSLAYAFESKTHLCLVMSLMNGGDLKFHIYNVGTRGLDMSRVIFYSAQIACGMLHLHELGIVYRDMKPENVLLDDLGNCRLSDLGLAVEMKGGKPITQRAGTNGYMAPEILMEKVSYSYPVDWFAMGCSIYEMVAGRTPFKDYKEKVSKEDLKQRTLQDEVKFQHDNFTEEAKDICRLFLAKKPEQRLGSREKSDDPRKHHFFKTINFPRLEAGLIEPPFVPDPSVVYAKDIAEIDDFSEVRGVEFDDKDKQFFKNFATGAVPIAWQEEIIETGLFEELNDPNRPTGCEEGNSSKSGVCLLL

[8] = target: Casein kinase I isoform delta (Homo sapiens) (UniProt P48730)
[9] = target: Serine/threonine-protein kinase Nek4 (Homo sapiens) (UniProt P51957)
[10] = target: T3, Serine/threonine-protein kinase Nek1 (Homo sapiens) (UniProt Q96PY6)
T3 sequence (whole entry): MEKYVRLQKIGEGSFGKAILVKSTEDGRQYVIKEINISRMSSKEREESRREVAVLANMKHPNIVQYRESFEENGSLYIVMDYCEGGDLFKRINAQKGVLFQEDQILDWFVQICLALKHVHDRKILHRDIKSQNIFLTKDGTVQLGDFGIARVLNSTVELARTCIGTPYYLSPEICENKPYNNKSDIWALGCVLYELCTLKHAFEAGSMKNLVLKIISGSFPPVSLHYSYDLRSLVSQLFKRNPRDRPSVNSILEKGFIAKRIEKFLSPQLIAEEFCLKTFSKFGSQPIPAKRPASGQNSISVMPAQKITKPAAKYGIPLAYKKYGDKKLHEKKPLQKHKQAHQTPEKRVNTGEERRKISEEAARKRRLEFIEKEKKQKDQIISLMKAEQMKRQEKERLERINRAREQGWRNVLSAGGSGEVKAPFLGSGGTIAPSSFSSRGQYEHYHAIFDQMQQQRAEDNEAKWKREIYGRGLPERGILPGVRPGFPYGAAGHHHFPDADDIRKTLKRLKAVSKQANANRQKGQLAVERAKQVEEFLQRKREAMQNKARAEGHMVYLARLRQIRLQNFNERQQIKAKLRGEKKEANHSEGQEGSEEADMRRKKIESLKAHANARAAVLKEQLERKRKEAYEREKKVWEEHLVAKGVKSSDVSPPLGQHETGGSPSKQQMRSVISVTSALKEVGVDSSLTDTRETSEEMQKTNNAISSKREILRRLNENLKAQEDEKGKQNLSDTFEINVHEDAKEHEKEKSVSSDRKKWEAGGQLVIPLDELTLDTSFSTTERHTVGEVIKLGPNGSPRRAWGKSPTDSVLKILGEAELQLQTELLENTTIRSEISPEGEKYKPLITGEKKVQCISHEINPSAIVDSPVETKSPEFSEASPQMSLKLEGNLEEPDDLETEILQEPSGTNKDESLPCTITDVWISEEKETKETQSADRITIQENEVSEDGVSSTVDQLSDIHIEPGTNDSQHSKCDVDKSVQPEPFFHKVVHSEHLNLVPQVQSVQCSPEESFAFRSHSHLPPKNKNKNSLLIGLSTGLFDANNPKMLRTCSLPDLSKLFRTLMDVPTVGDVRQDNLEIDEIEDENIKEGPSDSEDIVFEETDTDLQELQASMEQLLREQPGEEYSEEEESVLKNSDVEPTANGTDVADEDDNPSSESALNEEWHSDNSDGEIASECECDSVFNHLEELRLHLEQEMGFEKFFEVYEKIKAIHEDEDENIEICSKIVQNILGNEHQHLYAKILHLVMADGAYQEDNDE

Measured: % residual kinase activity

Sequence of Casein kinase I isoform delta (Homo sapiens) (P48730 whole entry, looked up, canonical isoform): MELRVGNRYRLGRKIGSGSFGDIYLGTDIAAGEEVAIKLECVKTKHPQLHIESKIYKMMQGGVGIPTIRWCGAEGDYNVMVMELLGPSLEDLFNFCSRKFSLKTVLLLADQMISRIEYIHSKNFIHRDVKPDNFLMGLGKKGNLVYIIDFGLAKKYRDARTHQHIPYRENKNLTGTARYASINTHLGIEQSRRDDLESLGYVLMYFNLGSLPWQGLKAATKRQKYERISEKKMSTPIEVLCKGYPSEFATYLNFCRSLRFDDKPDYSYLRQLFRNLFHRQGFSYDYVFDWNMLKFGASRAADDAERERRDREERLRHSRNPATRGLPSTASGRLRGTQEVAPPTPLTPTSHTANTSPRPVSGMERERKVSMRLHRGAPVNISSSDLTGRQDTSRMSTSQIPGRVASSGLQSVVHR
Sequence of Serine/threonine-protein kinase Nek4 (Homo sapiens) (P51957 whole entry, looked up): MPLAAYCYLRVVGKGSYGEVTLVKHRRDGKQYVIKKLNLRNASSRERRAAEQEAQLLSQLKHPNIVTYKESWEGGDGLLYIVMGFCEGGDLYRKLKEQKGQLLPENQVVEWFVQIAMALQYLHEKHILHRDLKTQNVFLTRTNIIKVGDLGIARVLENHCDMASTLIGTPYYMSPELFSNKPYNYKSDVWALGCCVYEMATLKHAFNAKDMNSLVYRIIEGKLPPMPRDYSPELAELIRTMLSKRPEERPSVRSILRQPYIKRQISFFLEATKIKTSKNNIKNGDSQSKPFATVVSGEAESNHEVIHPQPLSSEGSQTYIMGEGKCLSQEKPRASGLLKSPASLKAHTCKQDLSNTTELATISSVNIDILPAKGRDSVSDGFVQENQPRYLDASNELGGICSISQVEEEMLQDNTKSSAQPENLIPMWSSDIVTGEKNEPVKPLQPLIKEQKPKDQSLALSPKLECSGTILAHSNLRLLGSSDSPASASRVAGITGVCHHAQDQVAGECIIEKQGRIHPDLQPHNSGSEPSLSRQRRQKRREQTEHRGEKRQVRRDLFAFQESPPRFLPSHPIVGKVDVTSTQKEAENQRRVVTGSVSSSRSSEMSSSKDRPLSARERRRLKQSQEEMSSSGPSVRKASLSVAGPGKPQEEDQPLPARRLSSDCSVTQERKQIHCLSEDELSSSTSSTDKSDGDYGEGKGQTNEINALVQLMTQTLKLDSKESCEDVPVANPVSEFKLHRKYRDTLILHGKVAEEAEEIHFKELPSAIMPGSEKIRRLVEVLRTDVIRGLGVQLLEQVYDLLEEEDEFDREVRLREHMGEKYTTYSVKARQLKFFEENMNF
Sequence of Vascular endothelial growth factor receptor 2 (Homo sapiens) (P35968 whole entry): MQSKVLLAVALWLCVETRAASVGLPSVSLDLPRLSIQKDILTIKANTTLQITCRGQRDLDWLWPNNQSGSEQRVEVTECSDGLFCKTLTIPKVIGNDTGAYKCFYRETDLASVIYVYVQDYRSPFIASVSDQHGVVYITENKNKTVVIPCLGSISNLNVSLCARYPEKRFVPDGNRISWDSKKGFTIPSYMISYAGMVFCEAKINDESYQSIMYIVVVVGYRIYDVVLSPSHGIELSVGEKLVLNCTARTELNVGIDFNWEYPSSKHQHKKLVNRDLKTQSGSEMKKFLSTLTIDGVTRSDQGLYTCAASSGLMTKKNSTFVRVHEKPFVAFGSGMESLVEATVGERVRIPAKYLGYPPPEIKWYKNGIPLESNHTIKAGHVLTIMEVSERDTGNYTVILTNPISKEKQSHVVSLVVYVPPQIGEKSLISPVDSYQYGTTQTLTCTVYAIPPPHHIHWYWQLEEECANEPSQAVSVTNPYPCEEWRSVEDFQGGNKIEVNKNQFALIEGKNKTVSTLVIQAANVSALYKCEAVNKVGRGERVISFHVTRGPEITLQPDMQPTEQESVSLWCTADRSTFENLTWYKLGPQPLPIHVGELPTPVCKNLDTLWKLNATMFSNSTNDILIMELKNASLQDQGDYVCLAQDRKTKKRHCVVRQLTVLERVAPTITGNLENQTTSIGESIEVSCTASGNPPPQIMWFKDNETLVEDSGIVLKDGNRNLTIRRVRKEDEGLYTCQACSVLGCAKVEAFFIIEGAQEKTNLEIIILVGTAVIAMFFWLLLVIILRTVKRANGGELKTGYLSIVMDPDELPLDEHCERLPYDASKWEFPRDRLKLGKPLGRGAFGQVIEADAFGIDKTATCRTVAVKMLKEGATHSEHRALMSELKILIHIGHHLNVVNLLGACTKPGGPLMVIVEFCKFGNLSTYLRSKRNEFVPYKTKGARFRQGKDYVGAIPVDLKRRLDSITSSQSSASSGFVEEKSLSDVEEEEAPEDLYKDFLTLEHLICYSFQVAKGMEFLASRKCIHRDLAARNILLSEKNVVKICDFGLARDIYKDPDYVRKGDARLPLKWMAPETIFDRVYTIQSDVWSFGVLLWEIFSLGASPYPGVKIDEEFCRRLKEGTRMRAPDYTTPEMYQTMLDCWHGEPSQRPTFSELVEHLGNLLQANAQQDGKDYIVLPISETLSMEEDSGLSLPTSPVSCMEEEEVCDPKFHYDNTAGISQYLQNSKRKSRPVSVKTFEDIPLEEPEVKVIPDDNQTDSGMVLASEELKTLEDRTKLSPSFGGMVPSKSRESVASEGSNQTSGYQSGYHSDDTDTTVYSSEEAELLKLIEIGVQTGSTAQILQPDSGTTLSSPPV
Sequence of LIM domain kinase 2 (Homo sapiens) (P53671 whole entry, looked up, the tested form may be a part): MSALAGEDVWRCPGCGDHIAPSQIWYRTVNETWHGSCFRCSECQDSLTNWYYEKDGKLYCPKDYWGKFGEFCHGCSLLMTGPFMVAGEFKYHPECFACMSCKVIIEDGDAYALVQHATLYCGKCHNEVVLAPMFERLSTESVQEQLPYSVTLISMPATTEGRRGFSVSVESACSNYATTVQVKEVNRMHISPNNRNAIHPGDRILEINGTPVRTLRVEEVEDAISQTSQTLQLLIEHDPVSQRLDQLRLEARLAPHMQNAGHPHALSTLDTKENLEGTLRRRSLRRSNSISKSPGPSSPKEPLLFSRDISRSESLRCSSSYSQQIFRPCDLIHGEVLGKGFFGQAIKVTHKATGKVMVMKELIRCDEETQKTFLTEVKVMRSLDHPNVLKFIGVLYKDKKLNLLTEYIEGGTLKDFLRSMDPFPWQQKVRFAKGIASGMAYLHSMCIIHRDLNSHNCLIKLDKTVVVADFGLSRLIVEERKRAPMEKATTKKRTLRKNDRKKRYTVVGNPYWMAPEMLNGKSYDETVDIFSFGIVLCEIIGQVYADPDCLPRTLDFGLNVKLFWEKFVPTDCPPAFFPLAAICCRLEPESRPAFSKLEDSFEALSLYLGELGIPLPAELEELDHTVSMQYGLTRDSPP
Sequence of Calcium/calmodulin-dependent protein kinase type 1B (Homo sapiens) (Q6P2M8 whole entry, the tested form may be a part): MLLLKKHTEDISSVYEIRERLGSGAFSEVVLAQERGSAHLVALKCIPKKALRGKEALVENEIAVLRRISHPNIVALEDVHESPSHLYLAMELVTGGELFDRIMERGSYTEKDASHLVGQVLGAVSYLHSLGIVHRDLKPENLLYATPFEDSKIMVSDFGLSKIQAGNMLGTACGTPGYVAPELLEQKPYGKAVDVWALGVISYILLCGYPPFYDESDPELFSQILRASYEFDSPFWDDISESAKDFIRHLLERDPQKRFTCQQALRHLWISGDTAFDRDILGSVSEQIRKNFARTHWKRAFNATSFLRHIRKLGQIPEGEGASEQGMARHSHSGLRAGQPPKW
Sequence of Death-associated protein kinase 3 (Homo sapiens) (O43293 whole entry, looked up): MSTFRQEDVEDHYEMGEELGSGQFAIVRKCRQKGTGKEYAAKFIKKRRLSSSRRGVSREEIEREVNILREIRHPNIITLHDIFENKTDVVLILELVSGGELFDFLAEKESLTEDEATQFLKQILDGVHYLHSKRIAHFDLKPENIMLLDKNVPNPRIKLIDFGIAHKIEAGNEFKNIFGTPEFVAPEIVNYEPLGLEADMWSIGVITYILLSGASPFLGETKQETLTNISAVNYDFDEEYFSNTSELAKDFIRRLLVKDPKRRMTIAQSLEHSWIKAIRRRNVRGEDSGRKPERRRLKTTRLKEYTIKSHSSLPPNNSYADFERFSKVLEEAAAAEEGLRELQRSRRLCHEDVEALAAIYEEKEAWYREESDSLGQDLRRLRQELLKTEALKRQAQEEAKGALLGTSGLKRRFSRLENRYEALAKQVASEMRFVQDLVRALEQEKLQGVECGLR
Sequence of Myosin light chain kinase 2, skeletal/cardiac muscle (Homo sapiens) (Q9H1R3 whole entry): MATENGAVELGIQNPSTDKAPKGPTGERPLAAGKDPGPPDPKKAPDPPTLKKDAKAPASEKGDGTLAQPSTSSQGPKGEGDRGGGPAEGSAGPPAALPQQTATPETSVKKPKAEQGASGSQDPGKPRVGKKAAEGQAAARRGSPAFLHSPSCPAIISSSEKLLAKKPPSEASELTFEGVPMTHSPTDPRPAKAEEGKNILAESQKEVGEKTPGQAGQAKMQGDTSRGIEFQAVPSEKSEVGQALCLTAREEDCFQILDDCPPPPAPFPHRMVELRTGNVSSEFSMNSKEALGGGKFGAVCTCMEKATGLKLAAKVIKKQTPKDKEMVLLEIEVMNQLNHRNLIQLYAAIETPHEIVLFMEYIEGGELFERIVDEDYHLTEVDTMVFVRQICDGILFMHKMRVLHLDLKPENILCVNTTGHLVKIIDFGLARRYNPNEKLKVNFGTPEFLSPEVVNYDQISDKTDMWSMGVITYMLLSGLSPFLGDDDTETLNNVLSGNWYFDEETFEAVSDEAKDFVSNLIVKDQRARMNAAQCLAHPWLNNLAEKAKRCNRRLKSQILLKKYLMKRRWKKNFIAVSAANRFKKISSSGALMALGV

CN1CCN(c2cnc3c(C4CCN(C(=O)c5ccc(OC(F)(F)F)cc5N)CC4)ncnc3c2)CC1 [BAY-885]
inactive: [1] 111% | [2] 90% | [3] 104% | [4] 104% | [5] 100% | [6] 93% | [7] 101% | [8] 116% | [9] 114% | [10] 98%

From ChEMBL document CHEMBL4507268 (2021)
